1 molecule from US20120277257A1, “Methods of Treating Diseases, Pharmaceutical Compositions, and Pharmaceutical Dosage Forms” (MYREXIS, INC., priority 2009, published 2012) can be followed below.

One series concerns HT-29 colon cancer. The series is described as follows: HT-29 colon cancer xenograft. The class given is in vivo, mice. Particulars: 200 mg/kg oral, 5-days-on/2-days-off, after 3 cycles.
The test system of series [1] is NCI-H69 small cell lung cancer. The series can be described thus: NCI-H69 small cell lung cancer xenograft. The class given is in vivo, mice. The following applies: 200 mg/kg oral, daily for 27 days.
The subject of a further series is OVCAR-3 ovarian cancer. The series is described as follows: OVCAR-3 ovarian cancer xenograft. The format is in vivo, mice. Particulars: daily for 35 days.
Series [2] has as its system BT-474 HER2+ breast cancer. The series is described as follows: BT-474 HER2+ breast cancer xenograft. The class given is in vivo, mice. Particulars: 200 mg/kg oral, daily for 70 days.
The next series relates to Colo205 colon cancer. The series can be described thus: Colo205 colon cancer xenograft. The format is in vivo, mice. Particulars: daily for 21 days.
A further series concerns K-562 erythroleukemia. The series can be described thus: K-562 erythroleukemia xenograft. The class given is in vivo, mice. The following applies: daily for 18 days.
The subject of series [3] is multiple murine xenograft models. The series is described as follows: Murine xenograft models, summary across models. The class given is in vivo, mice.
Series [4] can be described thus: Phase I clinical trial, dose limiting toxicities. The format is in vivo, human. Particulars: 50 to 340 mg/m^2 oral, 1 to 13 (28-day) cycles. The protocol: A human clinical study was initiated at a starting dose of 50 mg/m^2. Subjects had recurrent cancer refractory to available systemic therapy. Compound 1 was administered daily by mouth in tablet form for 21 consecutive days in a 28 day cycle to each enrolled subject. For determination of drug levels in humans, plasma was collected prior to drug administration and 0.5, 1, 2, 3, 4, 6, 8, and 24 hours post-dosing on cycle 1 day 1, and cycle 1 day 21. Plasma was collected pre-dose only for cycle 1 day 8. Peripheral blood mononuclear cells (PBMCs) were collected prior to drug administration, and typically 8 and 24 hours post-dose on cycle 1 day 1 and cycle 1 day 21 in order to quantify Hsp70 protein levels as an exploratory biomarker. Patients were men and women with metastatic cancer, ranged in age from 45 to 85 years, and received doses ranging from 50 mg/m^2 to 340 mg/m^2, with a total daily dose of 100-740 mg (Tables 2A and 2B).

Another series relates to Hsp70 RNA. The series can be described thus: Hsp70 RNA induction in liver and tumor of N-87 xenografted mice (qRT-PCR). The class given is in vivo. The following applies: single oral dose 200 mg/kg. The protocol:
Xenografted mice bearing N-87 tumors (median volume ˜425 mm^3) were given a single oral dose of Compound 1 (200 mg/kg). Blood, tumor and liver samples (n=6) were collected at 0.25, 0.5, 1, 2, 4, 8, 12, 24, 36 and 48 h post-dose and used to determine Compound 1 concentrations in the plasma and Hsp70 RNA levels in tumor and liver samples (See FIG. 6). Hsp70 RNA levels were determined by qRT-PCR.

A short description of series [5]: Oral pharmacokinetics in female Sprague Dawley rats, single dose versus two doses. The format is in vivo. Particulars: for Cmax / AUC(0-t) / concentration at 24 h: female, Sprague Dawley, rat, plasma; for AUC(0-t): read-out: AUC(0-24); for concentration at 24 h: read-out: C24hr. The procedure: Female Sprague Dawley rats (n=4 or 5) were dosed orally once with 50 mg/kg (See FIG. 9A) or twice with 25 mg/kg (See FIG. 9B) of Compound 1. Pharmacokinetic parameters are outlined in Table 4 below. […] Effective plasma concentrations of Compound 1 were maintained with twice a day dosing.

Where [6] appears, read: 25 mg/kg oral, two doses 12 h apart.

Where two headings read alike, the source gives them in different places. Where only a bound is given, the exact number is not on record here.

As for `C[C@H](O)C(=O)N1CCC(CCn2c(Sc3cc4c(cc3Br)OCO4)nc3c(N)ncnc32)CC1` [Compound 1, (2S)-1-[4-(2-{6-amino-8-[(6-bromo-1,3-benzodioxol-5-yl)thio]-9H-purin-9-yl}ethyl)piperidin-1-yl]-1-oxopropan-2-ol], the “TGI (tumor growth inhibition)” value with HT-29 colon cancer was 68% TGI after 3 cycles; in the series with OVCAR-3 ovarian cancer (150 mg/kg oral), 84%; in the series with OVCAR-3 ovarian cancer (200 mg/kg oral), 97%; in the series with Colo205 colon cancer (150 mg/kg oral, p = 0.3), 72% TGI (p = 0.3) 150 mg/kg;; in the series with Colo205 colon cancer (200 mg/kg oral, p = 0.03), 87% TGI (p = 0.03) 200 mg/kg; in the series with K-562 erythroleukemia (150 mg/kg oral, p = 0.14), 82% TGI (p = 0.14) 150 mg/kg,. Moreover, in the series with K-562 erythroleukemia (200 mg/kg oral, p = 0.05), the “TGI (tumor growth inhibition)” value is 97% TGI (p = 0.05). Besides, the “time to tumor volume 1,500 mm^3” value in series [1] (p = 0.01) is recorded as “Extended time to 1,500 mm^3”. Also, the “treated mice with tumors <1,500 mm^3” value in series [1] (compared to 2/9 for vehicle arm) is listed as “(p = 0.01); 8/10 treated mice”. Besides, the tumor regression in series [2] turned out to be 17% regression. Besides, the “tumor regression, maximum over models” value in [3] (200 mg/kg oral, various xenograft models) is listed as “up to 50%”. For the same molecule, in [3] (xenografted mice dosed orally with Compound 1), the “weight loss of animals” value is recorded as “no significant weight loss”. Also, the dose limiting toxicities result in [4] is reported as “No dose limiting toxicities have been reported to date”. The “Hsp70 RNA induction in liver” value in the series on Hsp70 RNA (4 hours post-dose) is listed as about 70 fold. For the same molecule, the “Hsp70 RNA induction in tumor tissue” value in the series on Hsp70 RNA (4 hours post-dose) is on record as about 110 fold. In addition, the “time at which Hsp70 RNA induction reverts to baseline” value in the series on Hsp70 RNA (post-dose) is at most 12 h. Besides, the Cmax in [5] (setting [6]) worked out at 1110 ng/mL; in [5] (50 mg/kg oral, single dose), 2120 ng/mL. In addition, the AUC(0-t) is 5120 ng·h/mL in [5] (setting [6]) and 5840 ng·h/mL in series [5] (50 mg/kg oral, single dose). Also, the concentration at 24 h in series [5] (setting [6]) came out at 46.7 ng/mL; in series [5] (50 mg/kg oral, single dose) it was 1.5 ng/mL. In series [5] (oral), the “plasma concentration at 24 h with BID dosing versus single dose” value is given as “significantly higher”.

For orientation: Cmax means the peak of the concentration-time curve.
